According to PMC9961652 (International Journal of Molecular Sciences, 2023):
Where two headings read alike, the source gives them in different places.

How the values were obtained:
washed human platelets = test: Collagen-induced platelet aggregation, light transmission aggregometry (Born method); format: cell-based; conditions: for activity at 20 µM / IC50: Platelet; for activity at 20 µM: compound 20 µM, means ± SDs of three experiments, 100% = agonist alone; for IC50: Homo sapiens; for activity in collagen-induced platelet aggregation (SAR statement): relative to the quinoline analogs
Experimental: Light transmission aggregometry, i.e., the Born method, was used to determine in vitro antiplatelet aggregation activity using collagen as the agonist for platelet aggregation. Collagen was selected as the agonist, since it is the most thrombogenic component of the subendothelial layer. Collagen also serves as a substrate for platelet adhesion and as an inducer of platelet activation.
All experiments using human blood from healthy volunteers were performed according to the protocols approved by the Institutional Review Board at Cincinnati Children’s Hospital Medical Center, Cincinnati, Ohio. Each volunteer was required to sign an informed consent form approved by the IRB. Procedures for drawing human blood, isolating platelet-rich plasma (PRP), and preparing washed platelet suspensions were the same as those previously reported. […] PRP was obtained by means of the centrifugation of blood at 1400 rpm for 15 min at room temperature. PRP was centrifuged at 4000 rpm for 10 min at room temperature, and the platelet pellet was resuspended in HEPES Tyrode’s solution (pH 7.4) without calcium. Platelets were counted using Hemavet 950FS (Drew Scientific, Oxford, CT, USA), and the count was adjusted to 2.5 × 10^8/mL for aggregation studies.
The in vitro antiplatelet activity of the compounds was assayed on washed human platelets using light transmission aggregometry. Platelet aggregation was performed using a 4-channel Lumi-aggregometer (Chronolog, PA, USA) at 37 °C and stirring speed of 900 rpm. A volume of 250 µL of washed human platelets (2.5 × 10^8/mL) was pre-warmed to 37 °C along with the compounds or DMSO (0.1%) for 2 min before the addition of agonists such as collagen, AA, U46619 (a stable synthetic analog of thromboxane A2), ADP, and thrombin. For ATP secretion, platelets were pre-incubated with a luciferin/luciferase kit (Chrono-lume®) for 30 s at 37 °C before the addition of the agonist. The reactions were allowed to proceed for at least 4 min, and the results of platelet aggregation and ATP secretion were determined using Aggrolink software. Platelet aggregation was expressed as the maximum change in the light transmission, where the 100% value corresponded to treatment with the agonist alone. Compounds were evaluated in triplicate at nine compound concentrations ranging from 50 µM to 1 µM.

RhoA = test: RhoA-GTP formation, GST-Rhotekin effector pull-down assay in collagen-stimulated platelets; format: cell-based, human; conditions: 20 µM, 2 min pre-incubation; collagen 1 µg/mL for 4 min
Experimental: Next, the ability of the six compounds to suppress RhoA activity in platelets was assessed by subjecting them to a GST (Glutathione-S-transferase)-Rhotekin effector pull-down assay. The compounds were incubated with washed human platelets for 2 min before being stimulated with 1 µg/mL collagen. The analogs inhibited the activation of RhoA at the 20 µM concentration (Figure 2A,B). […] After confirming that these analogs could prevent RhoA activation and the phosphorylation of the MLC, their ability to disrupt complex-formation between RhoA and LARG was tested. […] These findings indicate that the active analogs inhibit RhoA activation by disrupting the binding between RhoA and its GEF.
(A,B) Washed human platelets were incubated with collagen (1 µg/mL) for 4 min, and the levels of RhoA-GTP formation were quantified with a GST-Rhotekin effector pull-down assay. The platelets were pre-incubated with 20 µM UC-177618, UC-177619, UC-177628, UC-177629, […], or […] for 2 min before being stimulated with collagen. The addition of ice-cold lysis buffer terminated the reaction. […] Relative amounts of the GTP-bound form of RhoA were quantified with densitometry measurements of total RhoA (T-RhoA) and normalized to untreated platelets. (C,D) The addition of 20 µM of active Rhosin-related compounds to washed human platelets 2 min before stimulation with collagen blocked the phosphorylation of the myosin light chain (p-MLC). The reactions were terminated after 4 min by adding 4x Laemmli sample buffer. The samples were processed for Western blotting and probed for MLC and p-MLC, and phosphorylation was quantified by measuring the densitometry of total MLC (T-MLC). The differences between DMSO- and Rhosin-related compounds were analyzed with t-test, and the results are shown as means ± SDs of three independent experiments. (* p < 0.05, ** p < 0.01, *** p < 0.001, and **** p < 0.0001).
The relative levels of RhoA-GTP in washed human platelets were quantified with effector domains GST-Rhotekin pull-down assays as previously reported. A volume of 250 µL of washed human platelets (2.5 × 10^8/mL) was pre-warmed to 37 °C along with the compounds or DMSO (0.1%) for 2 min before being stimulated with collagen (1 µg/mL). The reactions were terminated 4 min after collagen stimulation by adding ice-cold lysis buffer (20 mM Tris·HCl (pH 7.6), 100 mM NaCl, 1% Triton X-100, 0.2% Sodium Deoxycholate, 10 mM MgCl2, 1 mM dithiothreitol, 1x protease inhibitor cocktail, and 1x phosphatase inhibitor cocktail). The supernatants were collected and subjected to the GST-Rhotekin pull-down assay. The total cell lysates were also blotted in parallel. GTP-bound RhoA was quantitatively detected with Western blotting using an anti-RhoA antibody. The relative amounts of RhoA were quantified with densitometry measurements and normalized to the untreated platelets.

RhoA-LARG interaction = biological target: T1, RhoA-LARG interaction (Homo sapiens, UniProt P61586); test: In vitro complex-formation assay of RhoA with LARG DH-PH domain; format: binding; conditions: 20 µM; pull-down assay conditions, 4 °C, 1 h
T1 construct: 100 ng of purified full-length RhoA
Experimental: (A) A complex-formation assay tested the inhibitory effects of 20 µM UC-177618 and UC-177619 on RhoA interaction with the LARG DH-PH domain. […] After incubating the compound-RhoA-LARG mixture at 4 °C for 1 h, the beads associated with RhoA were detected with anti-RhoA Western blotting. (B,C) Top view of the predicted structural contacts of UC-177618 and UC-177619 in the binding pocket around the Trp58 residue of RhoA.
(A) A complex-formation assay tested the inhibitory effects of R-G04 and S-G04 on RhoA interaction with the LARG DH-PH domain. MBP-(His)6-tagged LARG (100 ng) was immobilized on Amylose beads. Binding buffer containing full-length RhoA (100 ng) was pre-incubated with different concentrations of R-G04 (25 µM or 50 µM), and S-G04 (5 µM or 10 µM) was added to the beads. After incubating the compound-RhoA-LARG mixture at 4 °C for 1 h, the beads associated with RhoA were detected with anti-RhoA Western blotting. (B) Top view of the predicted structural contacts of R-G04 and S-G04 in the binding pocket around the Trp58 residue of RhoA.
In total, 100 ng of purified MBP (Maltose-binding protein)-(His)6-tagged LARG DH-PH was immobilized on 20 µL of suspended amylose beads (No. E8021S; New England Biolabs Inc., Ipswich, MA, USA) by incubating them in an orbital shaker at 4 °C for 30 min in binding buffer (20 mM Tris·HCl (pH 7.6), 100 mM NaCl, 0.01% Triton X-100, 5mM EDTA, and 5 mM MgCl2). The compounds were added to the binding buffer containing 100 ng of purified full-length RhoA and pre-incubated at 4 °C for 30 min under constant agitation. The Amylose beads bound to LARG were washed thrice with binding buffer to get rid of unbound LARG, and the pre-incubated compound-RhoA mixture was added to the beads. This LARG-compound-RhoA mixture was incubated in the orbital shaker at 4 °C for 1 h. The beads were washed three times, and the amount of RhoA protein co-precipitated with the MBP-fusion-bound beads was detected with anti-RhoA Western blotting.

[1] = washed human platelets, read-out: % Platelet Aggregation, Collagen (1 µg/mL)
[2] = washed human platelets, read-out: % Platelet Aggregation, Collagen (5 µg/mL)
[3] = collagen-induced platelet aggregation, compounds without IC50 determination estimated from percent inhibition at 20 µM, read-out: IC50 (SAR table)
[4] = collagen 1 µg/mL, washed human platelets, dose-response curves, read-out: IC50 (95% CI) of platelet aggregation

T1 sequence (P61586 whole entry, the tested form may be a part): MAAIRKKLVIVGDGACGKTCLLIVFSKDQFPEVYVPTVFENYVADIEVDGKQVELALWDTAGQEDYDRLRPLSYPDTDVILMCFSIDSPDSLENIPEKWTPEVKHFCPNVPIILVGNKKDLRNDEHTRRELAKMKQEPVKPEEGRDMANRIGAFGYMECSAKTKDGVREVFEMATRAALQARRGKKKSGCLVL

IC50 (washed human platelets; [3]) [µM]	IC50 (washed human platelets; [4]) [µM]	LARG binding to RhoA (RhoA-LARG interaction)	Structure (SMILES)	activity at 20 µM (washed human platelets; [1]) [%]	activity at 20 µM (washed human platelets; [2]) [%]	RhoA-GTP formation (RhoA)	activity in collagen-induced platelet aggregation (SAR statement) (washed human platelets)
2.84			O=C(NNc1ccnc2c(C(F)(F)F)cccc12)c1cc2ccccc2[nH]1 [UC-177628]	8.7 ± 4.7	12.3 ± 9	inhibited RhoA-GTP formation	
> 20			Cc1cc(NNC(=O)c2cc3ccccc3[nH]2)nc2ccccc12 [UC-177630]	73 ± 21.6	85 ± 15.3		lost all activity
	5.2		O=S(=O)(Nc1cc(C(F)(F)F)ccc1Cl)c1cccc2cccnc12 [UC-406794]	12.7 ± 7.2	25 ± 5.2		
2.23	2.22		O=C(NNc1ccnc2cc(C(F)(F)F)ccc12)c1cc2ccccc2[nH]1 [UC-177627]	17.7 ± 11.4	19 ± 17.7		
2.39			O=C(NNc1ccnc2cc(Cl)ccc12)c1cc2ccccc2[nH]1 [UC-177629]	7.3 ± 5.9	10.8 ± 3	inhibited RhoA-GTP formation	
3.55			O=C(NNC1CCc2ccccc21)c1cc2ccccc2[nH]1 (stereo not drawn) [UC-178838]	7.3 ± 5.8	13.7 ± 7.9		nearly equipotent
> 20			Cc1ccc(C(=O)NNc2cc(C)c3ccccc3n2)cc1 [UC-177635]	79.1 ± 7	90.1 ± 8.3		
4.59			Cc1ccc(C(=O)NNc2ccnc3cc(Cl)ccc23)cc1 [UC-177634]	17 ± 2.6	24.5 ± 3.9		
2.34	2.38		Cc1ccc(C(=O)NNc2ccnc3c(C(F)(F)F)cccc23)cc1 [UC-177633]	3.3 ± 3.2	10.1 ± 8.3	inhibited RhoA-GTP formation	
> 20			Cc1ccc(C(=O)NNc2ccnc3cc(C(F)(F)F)ccc23)cc1 [UC-177632]	86.7 ± 11	93.1 ± 12.8		
> 20			Cc1ccc(C(=O)NNc2ccnc3ccccc23)cc1 [UC-177631]	87.7 ± 13.1	90.4 ± 3.7		

Further lines, the compound ahead of its results:

Structure (SMILES)	IC50 (washed human platelets; [3]) [µM]	IC50 (washed human platelets; [4]) [µM]	LARG binding to RhoA (RhoA-LARG interaction)	activity at 20 µM (washed human platelets; [1]) [%]	activity at 20 µM (washed human platelets; [2]) [%]	RhoA-GTP formation (RhoA)	activity in collagen-induced platelet aggregation (SAR statement) (washed human platelets)
Cc1[nH]c2ccccc2c1/C=N/NC(=O)c1cccnc1 [UC-390484]				81 ± 14	88.1 ± 10		
O=C(N/N=C/c1ccc(O)cc1)c1cc2ccccc2[nH]1 [UC-612333]				70 ± 5.6	78.6 ± 14.9		
CN(Cc1ccccc1)C(=O)C(N)Cc1c[nH]c2ccccc12 (stereo not drawn) [UC-651009]				86 ± 1.7	89.2 ± 10.6		
O=C(NNc1ccnc2ccccc12)c1ccc(Cl)c(Cl)c1 [UC-177617]	5.64			13 ± 10.4	26.8 ± 9		
S=C(NNc1ccnc2ccccc12)Nc1ccccc1 [UC-177615]		5.47		9.7 ± 6	11.4 ± 9.9		
CN(Nc1ccnc2cc(C(F)(F)F)ccc12)C(N)=S [UC177623]				84.3 ± 9	90.7 ± 6.2		
CSCCNc1nc(SCCC(F)(F)F)nc2c1ncn2[C@@H]1O[C@H](COP(=O)(O)OP(=O)(O)C(Cl)(Cl)P(=O)(O)O)[C@@H](O)[C@H]1O [Cangrelor, reference compound]				27.7 ± 2.52	63.3 ± 4.16		
O=C1OCCN1NC1CCOc2ccc(-n3cc[nH]c3=S)cc21 (stereo not drawn) [UC-177639]				80 ± 17.3	90.4 ± 9.1		
S=C(NNc1ccnc2cc(Cl)ccc12)Nc1ccccc1Cl [UC-936377]				61.3 ± 4.5	71.7 ± 5.3		
O=C(NNc1ccnc2ccccc12)c1cc2ccccc2[nH]1 [UC-177626]	> 20		showed no effects	86 ± 14.4	87.6 ± 19.4		
COc1ccc2cc(/C=N/NC(=O)Cc3c[nH]c4ccccc34)ccc2c1 [UC-391695]				79 ± 8	84.8 ± 12.1		
COc1cc(/C=N/NC(=O)C2COc3ccccc3O2)ccc1O (stereo not drawn) [UC-392453]				90.7 ± 8.5	94.7 ± 11.2		
Cc1[nH]c2ccccc2c1CCNC(=O)c1ccc2nccnc2c1 [UC-984842]				91.3 ± 10.5	95.9 ± 6.2		
N[C@@H](Cc1c[nH]c2ccccc12)C(=O)Nc1ccc2oc(C(=O)O)cc2c1 [UC-830013]				93 ± 10.8	91.3 ± 14.7		
O=C1OCCN1Nc1ccnc2ccccc12 [UC-177613]				84.3 ± 15.5	95.2 ± 4.9		
Cc1ccc(C)c(OCC(=O)N/N=C/c2cn(Cc3ccccc3)c3ccccc23)c1C [UC-436352]				84.7 ± 15.5	89 ± 2.5		
O=C1OCCN1Nc1ccnc2cc(C(F)(F)F)ccc12 [UC-177614]				87.3 ± 9.6	90 ± 3.1		
O=C(NNc1ccnc2ccccc12)Nc1ccccc1 [UC-177616]		4.9		11.7 ± 2.3	10.6 ± 3.6		
